Measured values as given in article PMC5428509, “Irreversible inhibition of BTK kinase by a novel highly selective inhibitor CHMFL-BTK-11 suppresses inflammatory response in rheumatoid arthritis model” (Scientific Reports, 2017).

How the values were obtained:
Test in all cases: biochemical
Design in all cases: KinomeScan competition binding panel (DiscoveRx), percent of control at 1 uM
Details in all cases: read-out: Percent Control
[1] = target: T1, ABL1(Q252H)-nonphosphorylated (Homo sapiens, UniProt P00519, Q252H)
T1 construct: nonphosphorylated
Outline: (§1)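 KinomeScan technology used to profile binding across a panel of 456 kinases and mutants.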

ASK2 = target: T2, ASK2 (Homo sapiens, UniProt O95382)
T2 construct: gene MAP3K6
Outline: as §1

QSK = target: T3, QSK (Homo sapiens, UniProt Q9Y2K2)
T3 construct: gene SIK3
Outline: as §1

PCTK1 = target: T4, PCTK1 (Homo sapiens, UniProt Q00536)
T4 construct: gene CDK16
Outline: as §1

CDKL1 = CDKL1 (Homo sapiens, UniProt Q00532)
Outline: as §1

MST2 = target: T5, MST2 (Homo sapiens, UniProt Q13188)
T5 construct: gene STK3
Outline: as §1

[2] = target: T6, RSK3(Kin.Dom.1-N-terminal) (Homo sapiens, UniProt Q15349)
T6 construct: gene RPS6KA2; Kin.Dom.1-N-terminal
Outline: as §1

STK35 = STK35 (Homo sapiens, UniProt Q8TDR2)
Outline: as §1

IKK-alpha = target: T7, IKK-alpha (Homo sapiens, UniProt O15111)
T7 construct: gene CHUK
Outline: as §1

[3] = target: T8, RSK3(Kin.Dom.2-C-terminal) (Homo sapiens, UniProt Q15349)
T8 construct: gene RPS6KA2; Kin.Dom.2-C-terminal
Outline: as §1

ICK = target: T9, ICK (Homo sapiens, UniProt Q9UPZ9)
T9 construct: gene CILK1
Outline: as §1

PRKX = PRKX (Homo sapiens, UniProt P51817)
Outline: as §1

FGFR4 = FGFR4 (Homo sapiens, UniProt P22455)
Outline: as §1

HUNK = HUNK (Homo sapiens, UniProt P57058)
Outline: as §1

BRSK2 = BRSK2 (Homo sapiens, UniProt Q8IWQ3)
Outline: as §1

[4] = target: T10, ABL1(F317L)-nonphosphorylated (Homo sapiens, UniProt P00519, F317L)
T10 construct: nonphosphorylated
Outline: as §1

MKNK1 = MKNK1 (Homo sapiens, UniProt Q9BUB5)
Outline: as §1

ACVRL1 = ACVRL1 (Homo sapiens, UniProt P37023)
Outline: as §1

NEK4 = NEK4 (Homo sapiens, UniProt P51957)
Outline: as §1

RET(M918T) = RET(M918T) (Homo sapiens, UniProt P07949, M918T)
Outline: as §1

FLT3 = FLT3 (Homo sapiens, UniProt P36888)
Outline: as §1

PHKG1 = PHKG1 (Homo sapiens, UniProt Q16816)
Outline: as §1

MYO3A = MYO3A (Homo sapiens, UniProt Q8NEV4)
Outline: as §1

PLK1 = PLK1 (Homo sapiens, UniProt P53350)
Outline: as §1

Chain of BRSK2 (Q8IWQ3 whole entry): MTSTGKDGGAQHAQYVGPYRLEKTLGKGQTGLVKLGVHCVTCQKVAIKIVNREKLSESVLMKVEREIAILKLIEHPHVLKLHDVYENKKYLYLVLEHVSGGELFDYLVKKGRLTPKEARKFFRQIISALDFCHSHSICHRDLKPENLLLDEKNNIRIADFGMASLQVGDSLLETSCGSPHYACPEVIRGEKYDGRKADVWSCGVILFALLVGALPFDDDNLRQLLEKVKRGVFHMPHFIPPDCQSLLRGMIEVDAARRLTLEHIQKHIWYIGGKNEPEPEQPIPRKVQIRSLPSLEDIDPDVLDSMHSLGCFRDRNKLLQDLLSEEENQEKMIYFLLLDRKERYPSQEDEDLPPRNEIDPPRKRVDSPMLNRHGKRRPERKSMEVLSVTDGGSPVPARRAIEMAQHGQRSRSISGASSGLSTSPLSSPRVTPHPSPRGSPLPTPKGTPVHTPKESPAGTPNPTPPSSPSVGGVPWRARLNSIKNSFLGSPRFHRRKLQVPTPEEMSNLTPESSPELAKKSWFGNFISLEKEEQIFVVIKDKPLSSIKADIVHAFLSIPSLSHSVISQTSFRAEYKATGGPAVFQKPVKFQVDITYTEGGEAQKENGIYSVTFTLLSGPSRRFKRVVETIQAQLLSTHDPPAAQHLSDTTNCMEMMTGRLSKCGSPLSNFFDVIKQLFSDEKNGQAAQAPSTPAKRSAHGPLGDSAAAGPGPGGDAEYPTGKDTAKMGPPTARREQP
Chain of NEK4 (P51957 whole entry): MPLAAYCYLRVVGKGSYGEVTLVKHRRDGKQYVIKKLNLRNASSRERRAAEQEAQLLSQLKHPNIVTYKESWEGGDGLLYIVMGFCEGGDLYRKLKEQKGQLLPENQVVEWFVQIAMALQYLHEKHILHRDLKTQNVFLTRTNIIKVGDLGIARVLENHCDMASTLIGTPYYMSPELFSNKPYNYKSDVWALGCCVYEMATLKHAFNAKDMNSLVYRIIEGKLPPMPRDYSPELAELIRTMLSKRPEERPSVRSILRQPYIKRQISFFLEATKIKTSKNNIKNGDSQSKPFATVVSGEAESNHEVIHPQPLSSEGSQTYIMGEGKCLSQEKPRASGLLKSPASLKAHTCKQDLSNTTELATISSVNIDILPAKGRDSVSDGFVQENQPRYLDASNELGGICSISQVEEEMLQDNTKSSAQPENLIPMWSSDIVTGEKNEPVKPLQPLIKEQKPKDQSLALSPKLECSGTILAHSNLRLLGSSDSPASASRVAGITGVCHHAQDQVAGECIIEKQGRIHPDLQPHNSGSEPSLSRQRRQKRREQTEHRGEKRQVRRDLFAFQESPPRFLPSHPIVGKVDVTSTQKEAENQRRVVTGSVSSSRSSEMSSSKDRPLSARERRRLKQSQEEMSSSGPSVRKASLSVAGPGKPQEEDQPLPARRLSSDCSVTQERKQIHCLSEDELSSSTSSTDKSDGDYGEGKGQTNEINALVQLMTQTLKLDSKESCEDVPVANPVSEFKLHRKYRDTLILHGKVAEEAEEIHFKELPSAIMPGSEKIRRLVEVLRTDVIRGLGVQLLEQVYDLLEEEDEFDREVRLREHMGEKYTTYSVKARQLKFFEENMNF
Chain of FGFR4 (P22455 whole entry): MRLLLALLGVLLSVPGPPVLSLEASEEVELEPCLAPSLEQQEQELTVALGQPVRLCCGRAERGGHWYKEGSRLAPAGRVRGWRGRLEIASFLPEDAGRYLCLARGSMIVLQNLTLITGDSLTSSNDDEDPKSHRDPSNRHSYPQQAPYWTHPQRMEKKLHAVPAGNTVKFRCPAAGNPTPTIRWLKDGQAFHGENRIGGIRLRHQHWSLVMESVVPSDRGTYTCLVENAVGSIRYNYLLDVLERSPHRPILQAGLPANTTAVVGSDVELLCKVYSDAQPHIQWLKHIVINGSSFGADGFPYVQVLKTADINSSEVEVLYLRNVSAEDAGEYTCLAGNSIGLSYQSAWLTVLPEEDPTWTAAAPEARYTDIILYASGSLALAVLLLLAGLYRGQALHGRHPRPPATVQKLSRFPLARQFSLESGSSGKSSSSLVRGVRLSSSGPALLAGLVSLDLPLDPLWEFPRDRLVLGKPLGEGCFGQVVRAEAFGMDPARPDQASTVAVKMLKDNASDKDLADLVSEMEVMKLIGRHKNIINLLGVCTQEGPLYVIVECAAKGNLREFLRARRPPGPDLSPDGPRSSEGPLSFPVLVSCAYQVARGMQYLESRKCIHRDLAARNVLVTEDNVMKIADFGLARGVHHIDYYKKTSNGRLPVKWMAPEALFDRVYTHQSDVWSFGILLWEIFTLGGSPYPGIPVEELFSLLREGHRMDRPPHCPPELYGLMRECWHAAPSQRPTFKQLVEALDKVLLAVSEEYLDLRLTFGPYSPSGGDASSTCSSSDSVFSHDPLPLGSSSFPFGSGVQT
T3 sequence (Q9Y2K2 whole entry): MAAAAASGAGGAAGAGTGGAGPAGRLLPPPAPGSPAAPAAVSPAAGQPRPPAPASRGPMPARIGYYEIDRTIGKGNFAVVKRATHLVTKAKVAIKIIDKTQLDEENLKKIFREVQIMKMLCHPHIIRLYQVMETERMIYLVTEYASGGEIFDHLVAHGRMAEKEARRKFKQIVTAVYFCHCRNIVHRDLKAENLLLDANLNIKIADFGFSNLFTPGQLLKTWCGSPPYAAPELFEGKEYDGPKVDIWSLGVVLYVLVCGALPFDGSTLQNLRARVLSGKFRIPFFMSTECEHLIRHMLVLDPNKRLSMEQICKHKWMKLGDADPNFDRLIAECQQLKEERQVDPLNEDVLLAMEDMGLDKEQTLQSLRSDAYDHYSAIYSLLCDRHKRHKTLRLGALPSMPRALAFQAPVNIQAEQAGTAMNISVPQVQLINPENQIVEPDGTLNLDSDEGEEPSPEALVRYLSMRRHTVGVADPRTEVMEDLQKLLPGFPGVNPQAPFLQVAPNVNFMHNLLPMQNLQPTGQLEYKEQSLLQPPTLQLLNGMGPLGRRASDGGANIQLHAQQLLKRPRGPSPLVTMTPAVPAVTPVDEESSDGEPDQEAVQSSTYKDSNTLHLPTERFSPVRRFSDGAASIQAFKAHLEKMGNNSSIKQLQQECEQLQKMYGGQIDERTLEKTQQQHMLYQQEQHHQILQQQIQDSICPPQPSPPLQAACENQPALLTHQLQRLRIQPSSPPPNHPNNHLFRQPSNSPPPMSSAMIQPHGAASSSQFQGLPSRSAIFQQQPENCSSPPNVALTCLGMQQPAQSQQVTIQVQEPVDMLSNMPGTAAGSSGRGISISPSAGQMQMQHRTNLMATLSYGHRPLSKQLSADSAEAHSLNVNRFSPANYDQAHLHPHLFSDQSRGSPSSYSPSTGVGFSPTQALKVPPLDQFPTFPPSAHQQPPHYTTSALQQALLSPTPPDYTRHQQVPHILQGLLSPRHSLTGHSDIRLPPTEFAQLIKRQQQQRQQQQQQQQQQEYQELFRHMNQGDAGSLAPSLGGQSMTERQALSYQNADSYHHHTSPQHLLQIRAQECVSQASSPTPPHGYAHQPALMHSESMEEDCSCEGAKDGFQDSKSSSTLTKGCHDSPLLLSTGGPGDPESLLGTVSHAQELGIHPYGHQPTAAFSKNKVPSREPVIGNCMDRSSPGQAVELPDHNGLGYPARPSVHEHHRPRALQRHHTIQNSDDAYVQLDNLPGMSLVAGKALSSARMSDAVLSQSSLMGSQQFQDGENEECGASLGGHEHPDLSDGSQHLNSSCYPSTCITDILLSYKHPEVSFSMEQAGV
Chain of STK35 (Q8TDR2 whole entry): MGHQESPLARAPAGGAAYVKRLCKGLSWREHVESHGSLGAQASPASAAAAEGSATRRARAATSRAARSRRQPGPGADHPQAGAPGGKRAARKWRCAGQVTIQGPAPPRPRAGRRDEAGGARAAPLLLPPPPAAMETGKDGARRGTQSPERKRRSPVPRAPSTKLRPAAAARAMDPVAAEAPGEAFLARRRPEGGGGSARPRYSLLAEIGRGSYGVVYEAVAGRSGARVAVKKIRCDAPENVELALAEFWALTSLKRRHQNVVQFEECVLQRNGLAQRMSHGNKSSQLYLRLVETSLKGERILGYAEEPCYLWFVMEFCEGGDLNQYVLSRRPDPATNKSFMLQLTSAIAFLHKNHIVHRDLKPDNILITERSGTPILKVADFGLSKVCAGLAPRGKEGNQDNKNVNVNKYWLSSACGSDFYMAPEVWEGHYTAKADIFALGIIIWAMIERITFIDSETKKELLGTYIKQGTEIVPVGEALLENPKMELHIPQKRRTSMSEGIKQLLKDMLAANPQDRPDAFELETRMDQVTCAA
Chain of MKNK1 (Q9BUB5 whole entry): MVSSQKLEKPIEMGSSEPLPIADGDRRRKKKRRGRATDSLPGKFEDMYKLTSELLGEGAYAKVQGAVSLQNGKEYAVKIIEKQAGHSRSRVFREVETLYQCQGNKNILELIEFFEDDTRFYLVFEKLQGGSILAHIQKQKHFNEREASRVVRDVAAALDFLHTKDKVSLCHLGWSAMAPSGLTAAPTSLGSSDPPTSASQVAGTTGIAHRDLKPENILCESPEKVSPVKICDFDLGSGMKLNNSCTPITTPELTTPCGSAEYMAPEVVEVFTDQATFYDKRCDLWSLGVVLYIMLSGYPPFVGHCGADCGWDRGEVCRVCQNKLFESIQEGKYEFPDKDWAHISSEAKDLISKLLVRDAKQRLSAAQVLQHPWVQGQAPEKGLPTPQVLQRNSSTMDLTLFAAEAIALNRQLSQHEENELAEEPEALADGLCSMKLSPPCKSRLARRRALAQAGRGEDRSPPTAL
Chain of PRKX (P51817 whole entry): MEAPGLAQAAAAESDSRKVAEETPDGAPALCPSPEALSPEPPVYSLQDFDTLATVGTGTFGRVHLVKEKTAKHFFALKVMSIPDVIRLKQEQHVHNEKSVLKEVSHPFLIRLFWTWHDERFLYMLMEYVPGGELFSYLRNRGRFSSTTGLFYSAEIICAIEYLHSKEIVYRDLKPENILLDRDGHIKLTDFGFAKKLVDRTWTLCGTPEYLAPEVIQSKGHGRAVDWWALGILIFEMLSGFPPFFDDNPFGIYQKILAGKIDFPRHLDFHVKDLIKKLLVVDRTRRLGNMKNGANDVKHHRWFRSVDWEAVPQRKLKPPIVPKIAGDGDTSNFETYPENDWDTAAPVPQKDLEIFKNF

SMILES: C=CC(=O)Nc1cc(-n2c(=O)ccc3cnc4ccc(-n5cccn5)cc4c32)ccc1C [CHMFL-BTK-11]
- remaining binding at 1 µM [1]: 100%
- remaining binding at 1 µM (ASK2): 100%
- remaining binding at 1 µM (QSK): 92%
- remaining binding at 1 µM (PCTK1): 100%
- remaining binding at 1 µM (CDKL1): 93%
- remaining binding at 1 µM (MST2): 97%
- remaining binding at 1 µM [2]: 100%
- remaining binding at 1 µM (STK35): 100%
- remaining binding at 1 µM (IKK-alpha): 96%
- remaining binding at 1 µM [3]: 100%
- remaining binding at 1 µM (ICK): 100%
- remaining binding at 1 µM (PRKX): 100%
- remaining binding at 1 µM (FGFR4): 100%
- remaining binding at 1 µM (HUNK): 86%
- remaining binding at 1 µM (BRSK2): 86%
- remaining binding at 1 µM [4]: 96%
- remaining binding at 1 µM (MKNK1): 92%
- remaining binding at 1 µM (ACVRL1): 90%
- remaining binding at 1 µM (NEK4): 100%
- remaining binding at 1 µM (RET(M918T)): 100%
- remaining binding at 1 µM (FLT3): 100%
- remaining binding at 1 µM (PHKG1): 100%
- remaining binding at 1 µM (MYO3A): 100%
- remaining binding at 1 µM (PLK1): 99%
